The data set relates to adult patients (aged 18-64 years) with TRD. The experiment in a line: MOAA/S-defined sedation (score <5). The class given is in vivo, human. As for the experimental part: For measuring treatment session induced sedation, one of skill in the art may use the Modified Observer's Assessment of Alertness/Sedation Scale (MOAA/S). […] For subjects with a score of 4, the assessment should be repeated every 15 minutes. And for subjects with a score of ≤3, the assessment should be repeated every 5 minutes until the score. In some embodiments, the results of the MOAA/S may be correlated to levels of sedation defined by the American Society of Anesthesiologists (ASA) continuum.
Vital signs, the Clinician-Administered Dissociative States Scale (CADSS), and the Modified Observer's Assessment of Alertness/Sedation (MOAA/S) were assessed at baseline and all treatment sessions (predose, and at 40 minutes, 1 hour [vital signs only unless spontaneously reported by the patient], and 1.5 hours postdose). Routine blood pressure (BP) readings were conducted at each treatment session, with elevations reported as AEs based on the clinician's judgement. The CADSS assessed treatment-emergent dissociative symptoms and consists of 23 questions, each coded on a 5-point scale (0=not at all, 1-mild, 2-moderate, 3=severe, 4-extreme), yielding a total score 0-92.11 A CADSS total score >4 indicated the presence of dissociative symptoms. The MOAA/S assessed treatment-emergent sedation: scores range from (=no response to painful stimulus to 5=readily responds to name spoken in normal tone. Any decrease in MOAA/s from pre-dose (score <5) indicated some degree of sedation. An abnormal elevation in BP was defined as systolic BP ≥180 mmHg and ≥20 mmHg higher than baseline and/or diastolic BP ≥105 mmHg and ≥15 mmHg greater than baseline.
This analysis included any treatment sessions in which patients received ESK (either open-label or blinded). The occurrence and severity of AEs were assessed within the following timeframes: Month 1 (Week 1 and Weeks 2-4), Month 2 (Weeks 5-8), Months 3-6 and Months 6-12. Severity of clinician-reported AEs were scored as 0 (no AE), 1 (mild), 2 (moderate), and 3 (severe). To examine AEs in individual patients over time, only patients who received at least one ESK dose in the following period were included in the analyses of each respective period. Thus, patient data were retained in (i) Week 1 if the patient received ≥1 ESK dose in Weeks 2-4, (ii) Weeks 2-4 if the patient received ≥1 ESK dose in Weeks 5-8, (iii) Weeks 5-8 if the patient received ≥1 ESK dose in Months 3-6, and (iv) Months 3-6 if the patient received ≥1 ESK dose in Months 6-12.

With `CN[C@]1(c2ccccc2Cl)CCCCC1=O` [esketamine, (S)-2-(2-chlorophenyl)-2-(methylamino)cyclohexanone], the MOAA/S-defined sedation is on record as 47.7% (Months 3-6, AE once in Week 1); 74.5% (Months 3-6, AE twice in Week 1); 23.8% (Months 3-6, No AE in Week 1); 37.5% (Months 3-6, overall rate for timeframe); 38.3% (Months 6-12, AE once in Week 1); 51.8% (Months 6-12, AE twice in Week 1). In addition, the MOAA/S-defined sedation by setting is: (Months 6-12, No AE in Week 1) 18.8%; (Months 6-12, overall rate for timeframe) 28.4%; (Week 1, overall rate for timeframe) 38.1%; (Weeks 2-4, AE once in Week 1) 65.7%; (Weeks 2-4, AE twice in Week 1) 95.4%; (Weeks 2-4, No AE in Week 1) 22.0%. Also, the MOAA/S-defined sedation by setting is: (Weeks 2-4, overall rate for timeframe) 44.2%; (Weeks 5-8, AE once in Week 1) 42.0%; (Weeks 5-8, AE twice in Week 1) 81.4%; (Weeks 5-8, No AE in Week 1) 15.8%; (Weeks 5-8, overall rate for timeframe) 33.1%. In addition, the “MOAA/S mean recurrence scores” value (after Week 1 or Week 4, regardless of highest MOAA/S) was 3.5-4.0. Further, the “MOAA/S mean recurrence score, single patient exception” value (human, in vivo, other: intranasal) was found to be 3.25. Moreover, the “measure-based sedation not reported during Week 1, patients” value (human, in vivo, other: intranasal, 1 week) worked out at 62%.
